Measured values: patent publication US9181307B2, “Influenza A 2009 pandemic H1N1 polypeptide fragments comprising endonuclease activity and their use” (priority 2010, dated 2015)

system: endonucleolytically active site of the Influenza A 2009 pandemic H1N1 PA subunit polypeptide fragment or variant thereof; assay: Co-crystallisation / X-ray structure: binding to the endonucleolytically active site; parameters: species or system Influenza A 2009 pandemic H1N1 virus

Row | Compound | ability to bind to the endonucleolytically active site
1 | O=C(O[C@@H]1Cc2c(O)cc(O)cc2O[C@@H]1c1cc(O)c(O)c(O)c1)c1cc(O)c(O)c(O)c1 [EGCG, [(2R,3R)-5,7-dihydroxy-2-(3,4,5-trihydroxyphenyl)chroman-3-yl]3,4,5-trihydroxybenzoate] | able to bind to the endonucleolytically active site
2 | O=C(O)/C(O)=C/C(=O)C1(Cc2ccc(Cl)cc2)CCN(CC2CCCCC2)CC1 [EMBL-R05-2, 4-[4-[(4-chlorophenyl)methyl]-1-(cyclohexylmethyl)-4-piperidinyl]-2-hydroxy-4-oxo-2-butenoic acid] | able to bind to the endonucleolytically active site
3 | O=C(O)/C(O)=C/C(=O)C1(Cc2ccc(Cl)cc2)CCCN(Cc2ccccc2)C1 (stereo not drawn) [EMBL-R05-3, 4-[3-[(4-chlorophenyl)methyl]-1-(phenylmethyl)-3-piperidinyl]-2-hydroxy-4-oxo-2-butenoic acid] | able to bind to the endonucleolytically active site
